Experimental data reported in patent US8691762B2, “Methods and assays for treating subjects with SHANK3 deletion, mutation or reduced expression” (Mount Sinai School of Medicine, priority 2010, dated 2014).
Entries after “also recorded” stand apart in the source; their conditions may differ.

Columns and labels:
[1] = test system: Akt; experiment: Western blot for total- and phospho-Akt in hippocampus; assay type: in vivo, mouse
Excerpt: FIG. 6. IGF1 treatment activates PI3K-Akt pathway in the hippocampus. PI3K binds to AMPARs and is required to maintain AMPAR surface expression during long-term potentiation.
It is interesting to note that IGF-1 activates the mTOR/Akt pathway as this has been implicated in other neurodevelopmental disorders (Veenstra-Vanderweele et al., 2012).

[2] = test system: Shank3 heterozygous mice; experiment: Motor performance and learning, latency to fall off a rotating rod; assay type: in vivo, mouse; conditions: IGF-1 240 μg/kg/day for 2 weeks; male Shank3 Het vs vehicle
Protocol: FIG. 11. IGF-1 treatment reverses motor deficits in Shank3 heterozygous mice.
Phelan-McDermid syndrome frequently presents with hypotonia and at least transient motor deficits, and subtle motor deficits have been observed in Shank3-heterozygous mice (Bozdagi et al., 2010). To determine whether treatment with full-length IGF-1 may improve motor performance in Shank3-deficient mice, male heterozygous mice were treated with either vehicle or IGF-1 (240 μg/kg/day for 2 weeks).

[3] = test system: AMPA receptor; experiment: AMPA receptor component of I/O function (field EPSP slope vs fiber volley in presence of APV); assay type: in vivo, mouse; conditions: Shank3 Het
Protocol: (§1) FIG. 10A-10B. Recombinant human IGF-1 (rhIGF-1) reverses deficits in long-term potentiation and basal synaptic properties at Schaffer collateral-CA1 synapses in Shank3 heterozygous mice in a dose-dependent fashion. rhIGF-1 is administered daily via i.p. injections (120 or 240 μg/kg body weight) starting at P13-15 and continued for 2 weeks for electrophysiological recordings. A. LTP was induced with high-frequency stimulation and normalized field EPSP slope was plotted as a function of time. […] B. AMPA receptor responses were assessed in the mice. Slices were incubated in the presence of APV and mean field EPSP slope as a function of fiber volley is shown for slices derived from wildtype (WT), Shank3 heterozygous (Het) mice, and Het injected with rhIGF-1. Deficits in AMPA receptor signaling observed in Shank3 heterozygotes were reversed with 2-week rhIGF-1 treatment.
IGF-1 has been approved for clinical use as a recombinant full-length protein. Full-length IGF-1 enters the CNS through an interaction with lipoprotein-related receptor 1 (LRP1), after activity dependent cleavage of IGF binding protein-3 (IGFBP-3) by matrix metalloproteinase-9 (MMP9) (Nishijima et al., 2010). […]

[4] = test system: Shank3 heterozygous mice; experiment: Long-term potentiation at Schaffer collateral-CA1 synapses, hippocampal slices from treated Shank3 heterozygous mice; assay type: in vivo, mouse; conditions: for LTP (normalized field EPSP slope), higher dose: rhIGF-1 i.p. 240 μg/kg/day for 2 weeks from P13-15
Protocol: FIG. 8. […] Ampakine CX1837 or HPCD vehicle is administered daily via i.p. injections (1.5 mg/kg body weight) starting at 2 weeks old and continued for 4 weeks for electrophysiological recordings.
as §1

[5] = test system: Shank3 KO mice; conditions: (1-3)IGF-1 peptide, same protocol as heterozygotes, N=2
Protocol: Brief experimental procedures: Hippocampal slices (350 μm) are prepared from 1-3 month old Shank3 heterozygous, Shank3 knockout, and wildtype littermates, treated with (1-3) IGF-1 peptide, full-length IGF1, growth hormone, AMPAkine or saline or other appropriate control. Slices are perfused with Ringer's solution, bubbled with 95% O2/5% CO2, at 32° C., during extracellular recordings. Baseline of field excitatory postsynaptic potentials (fEPSPs) recorded from stratum radiatum in area CA1, evoked by stimulation of the Schaffer collateral-commissural afferents with bipolar tungsten electrodes placed into area CA3. Long-term potentiation (LTP) is induced either by a high-frequency stimulus (four trains of 100 Hz, 1 s stimulation separated by 5 min), or by theta-burst stimulation (TBS) (10 bursts of four pulses at 100 Hz separated by 200 ms), with a success rate >90% for control and genetically-modified animals with all stimulation protocols. To induce long-term depression (LTD), Schaffer collaterals were stimulated by a low frequency stimulus (900 pulses at 1 Hz for 15 min) or paired-pulse low frequency stimulus. LTD was induced with a success rate >90% for control animals. […]

Row | Substance | phospho-Akt/Akt ratio ([1]; hippocampal lysates, Shank3 Het injected 2 weeks, n=10, vehicle 0.36±0.03 (n=8), 1-tailed p=0.040) | phosphorylation of Akt (pAkt1) ([1]; hippocampus, heterozygote mice, vs vehicle injected, n=3, P=0.0366) | Latency to fall off rotating rod / motor performance [2] | Mean slope of the I/O function (AMPA receptor component) ([3]; IGF-1 240 μg/kg/day i.p. 2 weeks, wildtype 0.625±0.08, untreated Het 0.31±0.045, p=0.004) | Deficits in AMPA receptor signaling (AMPA component of I/O function) ([3]; rhIGF-1 i.p. 240 μg/kg/day for 2 weeks, slices in APV) | LTP (normalized field EPSP slope), lower dose ([4]; rhIGF-1 i.p. 120 μg/kg/day for 2 weeks, Shank3 Het) | LTP (normalized field EPSP slope), higher dose ([4]; Shank3 Het) | LTP (normalized field EPSP slope), higher dose ([4]; Shank3 Het, listed as rhIGF-1) | LTP (fEPSP versus time) [5] | LTP (normalized field EPSP slope) ([4]; (1-3)IGF-1 i.p. 0.01 mg/g (10 μg/g/day) daily for 2 weeks from P13-15, Shank3 Het vs vehicle)
1 | IGF-1: recombinant human IGF-1, a 7.6 kDa protein, SEQ ID NO:3 | 0.55±0.04 | increase | significantly longer latencies; also recorded: Significant enhancement of motor performance | 0.618±0.075 | reversed | not associated with significant reversal | effective in rescuing defective LTP | reversed by the higher |  | 
2 | glycine-proline-glutamic acid [(1-3)IGF-1] |  |  |  |  |  |  |  |  | reversed the impairment in LTP | reversed; also recorded: restored normal hippocampal LTP
